Reference: publication PMC10350923, “In Vitro and In Vivo Biological Activities of Dipicolinate Oxovanadium(IV) Complexes” (Journal of Medicinal Chemistry, 2023)
“And” between values parts separate entries of the source, which are not always exact repeats. Equal values may be shown once. Read-outs that look alike come from different tables or passages of the source.

Assays:
[1] = test system: HCT116 (colorectal carcinoma cell line); assay: MTS cell viability assay, HCT116; type: cell-based, human; conditions: 48 h of exposure, mean ± SEM
[2] = test system: A2780 (ovarian carcinoma cell line); assay: MTS cell viability assay, A2780; type: cell-based, human; conditions: 48 h of exposure, mean ± SEM
[3] = test system: HCT116-DoxR (doxorubicin-resistant colorectal carcinoma cell line); assay: MTS cell viability assay, HCT116-DoxR;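 further: MTS colorimetric quantification of viable cells, with loss of viability tracked as complex concentration rises, in DMEM-grown HCT116-DoxR, a line whose resistance involves P-glycoprotein efflux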
Procedure: (§7) To assess the cytotoxicity of vanadium complexes in tumor and healthy cells, the MTS assay, a colorimetric method that allows the quantification of viable cells present in solution,[71] was performed.
Cell culture and maintenance
(§8) The A2780 cancer cell line (ovarian carcinoma) was purchased from Sigma-Aldrich (Madrid, Spain)
(§9) while HCT116 cancer cell line (colorectal carcinoma) and the normal human primary dermal
(§10) fibroblasts were obtained from American Type Culture Collection (ATCC®, Manassas, VA, USA).
(§11) HCT116 Dox-resistant cell line (HCT116-DoxR) was derived from HCT116 parental cells, as
(§12) All cells were cultured in Dulbecco’s modified Eagle medium (DMEM), except the A2780 cell line
(§13) which was cultured in RPMI (Roswell Park Memorial Institute) medium. Both media were
(§14) supplemented with 10% (v/v) fetal bovine serum (FBS) and 1% (v/v) of a Pen/Strep
(§15) (Penicillin/Streptomycin) solution. HCT116-DoxR cell medium was additionally supplemented with
(§16) All media and supplements were purchased from Thermo Fischer Scientific (Waltham, Massachusetts, USA).
(§17) (SANYO CO2 Incubator, Electric Biomedical Co., Osaka, Japan).
(§18) HCT116, HCT116-DoxR and A2780 cancer cell lines and normal human primary fibroblasts were
(§19) used in cellular viability assays. Cells were seeded in a density of 0.75×10^5 cells/mL into 96 well-
(§20) After the 24 h of incubation, complexes were
(§21) weight and immediately solubilized in 100% (v/v) DMSO and then, diluted for the final concentration
(§22) with cell culture medium. The medium in each 96 well-plates will be replaced by fresh medium
(§23) containing each vanadium complex (concentrations ranging from 0.01 µM to 50 µM). Culture medium
(§24) with 0.1% (v/v) DMSO and 0.4 µM Dox were used as negative and positive controls, respectively.

[4] = test system: normal human primary dermal fibroblasts; assay: MTS cell viability assay, fibroblasts
Procedure: as §7
Cell culture and maintenance
as §8, §9, §10, §11, §12, §13, §14, §15, §16, §17, §18, §19, §20, §21, §22, §23, §24

[5] = n-octanol/PBS buffer partition coefficient, shake-flask, UV-vis; conditions: room temperature
Procedure: The lipophilicity of V(IV) complexes was investigated using the classical shake-flash method at room temperature in the two-phase system of immiscible solvents n-octanol/PBS buffer.[69],[70] The transfer of V(IV) compounds from the aqueous environment to the organic phase was monitored by UV–vis spectroscopy.
The n-octanol/PBS buffer partition coefficients (logP) were determined by shake-flash approach, and
the transfer of V(IV) compounds from the aqueous environment to the organic phase was monitored
by UV-Vis spectroscopy5,6. Solutions of 1–10 of concentrations in the range 10-100 M were prepared
in PBS buffer saturated with n-octanol from the freshly-prepared stock solution in DMSO (5mM or 50
mM), and their UV-Vis spectra were recorded. The solution of 1–10 in aqueous buffer (3 ml) were
mixed with n-octanol saturated with pH 7.4 aqueous buffer (3 ml), and the obtained mixtures were
stirred in a mechanical shaker for 30 min. The mixtures were allowed to stand at room temperature for
24 h, and after this time, the aqueous phases were separated, and the concentrations of 1–10 were
determined by measuring their UV-Vis spectra. For each complex, the highest energy absorption band was taken into consideration to determine the sample concentration.

HCT116-DoxR cells [6] = assay: Alexa Fluor 488-annexin V/PI apoptosis assay, flow cytometry; type: cell-based, human; conditions: 48 h
caspase-8 = assay: Caspase-8 activity, IETD-pNA cleavage; type: cell-based, human; conditions: HCT116-DoxR, 48 h; complexes at IC50, cisplatin 5 μM
Procedure: Since caspase-8 is an initiator caspase of the extrinsic apoptotic pathway, its activity was evaluated after HCT116-DoxR cells were exposed to complexes 5 and 8 (Figure 8).
The chromogenic substrate IETD-pNA, which results from the conjugation between the peptide IETD (Ile-Glu-Thr-Asp) and the chromophore p-nitroanilide (pNA), is cleaved by caspase-8 and releases pNA, which can be detected by measuring absorbance at 400 nm.[99] Therefore, if complexes 5 and 8 induce cell death through the extrinsic apoptotic pathway, there is an increase in absorbance at 400 nm compared to the control sample, corresponding to an increase in caspase-8 activity that is translated into the cleavage of the substrate IETD-pNA (Figure 8).
Antibody; Cell Signalling Technology, USA).
Assay Kit (Abnova Corporation, Walnut, CA, USA).
vanadium complexes at its IC50 concentrations.
Cells were then incubated
Flow Cytometer (Life Technologies, Carlsbad, USA).
HCT116-DoxR cell line was cultivated

HCT116-DoxR cells [7] = assay: Cell cycle progression, PI, flow cytometry; conditions: HCT116-DoxR, 3, 9, 24, 32 h; complexes at IC50, cisplatin 5 μM, Dox 6 μM
HCT116-DoxR cells [8] = assay: Autophagy induction, Green Detection Reagent, flow cytometry; conditions: 48 h, complexes at IC50, cisplatin 5 μM, Dox 6 μM
HCT116-DoxR spheroids = assay: MTS assay in 3D spheroids; type: cell-based, human; conditions: HCT116-DoxR spheroids 6- to 8-day-old, 48 h
HCT116-DoxR cells [9] = assay: Cell internalization by ICP-AES; type: cell-based, human; conditions: 3 h exposure to 10x IC50, ICP-AES
HCT116-DoxR cells [10] = assay: ROS production, H2DCF-DA, flow cytometry; type: cell-based, human; conditions: 48 h, IC50
Procedure: Thus, the level of ROS present in HCT116-DoxR cells after their exposure to vanadium complexes was quantified (Figure 10). The probe 2′,7′-dichlorohydrofluorescein diacetate (H2DCF-DA), which diffuses into cells and is deacetylated by cellular esterases resulting in a nonfluorescent compound, was used. Inside the cell, this molecule is oxidized by ROS and then originates the fluorescent molecule 2′,7′-dichlorofluorescein (DCF) that can be detected by flow cytometry.[103]
(§1) finishing the 48 h period.
(§2) Attune® Cytometric software.
(§3) Butyl hydroperoxide) were used as controls.
(§4) Cells were later analysed
(§5) (double thymidine block).
(§6) After this, the pellet was resuspended in
Control solutions were also prepared, namely a […]

[11] = target: T1, BSA (bovine serum albumin) (Bos taurus, UniProt P02769); assay: BSA binding, UV-vis and fluorescence spectroscopy
T1 construct: I (1–195), II (196–383), and III (384–583)
T1 sequence (P02769 25-607): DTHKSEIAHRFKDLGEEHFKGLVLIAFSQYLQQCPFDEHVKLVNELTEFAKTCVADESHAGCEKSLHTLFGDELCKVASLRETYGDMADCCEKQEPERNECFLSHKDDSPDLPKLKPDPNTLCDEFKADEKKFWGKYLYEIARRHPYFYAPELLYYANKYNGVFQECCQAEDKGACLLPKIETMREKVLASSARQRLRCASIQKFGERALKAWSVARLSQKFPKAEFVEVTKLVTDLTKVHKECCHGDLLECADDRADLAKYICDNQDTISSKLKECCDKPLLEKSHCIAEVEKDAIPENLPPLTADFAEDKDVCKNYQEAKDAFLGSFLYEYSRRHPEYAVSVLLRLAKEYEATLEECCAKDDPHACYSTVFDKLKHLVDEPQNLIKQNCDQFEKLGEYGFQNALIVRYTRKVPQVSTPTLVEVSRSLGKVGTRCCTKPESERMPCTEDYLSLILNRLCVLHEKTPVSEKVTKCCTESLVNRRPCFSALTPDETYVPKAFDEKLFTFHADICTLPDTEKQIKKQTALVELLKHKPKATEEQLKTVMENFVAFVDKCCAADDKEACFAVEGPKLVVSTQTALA

fibroblasts = assay: Cell migration (wound healing) assay; type: cell-based, human; conditions: 24 h, IC50
Procedure: In the wound healing assay, a region without cells is generated, being then exposed to the compounds, and the cell migration is analyzed after 24 h, to determine the cells’ ability to proliferate and refill the gap previously formed (Figure 14).[116]
as §1, §2, §3, §4, §5, §6
Control solutions were also prepared, namely a
DMSO only. […] The UV-Vis spectra were […]

[12] = test system: chick chorioallantoic membrane; assay: Ex ovo chick chorioallantoic membrane (CAM) assay, angiogenesis; type: in vivo, chicken; conditions: chick embryo CAM, IC50, 48 h
Description: The ex ovo CAM assay was used to evaluate the role of vanadium complexes in the process of angiogenesis. CAM is a chicken extraembryonic membrane and is often used to study the process of angiogenesis in vivo as it has a high density of blood and lymphatic vessels.[120] This assay consists of analyzing certain vascularized areas of the chorioallantoic membrane of a chicken embryo. Initially, o-rings are placed covering those membrane vascularized areas being then exposed to the complexes. Pictures are then taken at 0, 24, and 48 h after exposure to the complexes and the number of blood vessels present at each hour are counted and compared. The results can be observed in Figure 15.
Ex-ovo Chick Chorioallantoic Membrane (CAM) assay
The ex-ovo chorioallantoic membrane (CAM) assay was performed in order to evaluate the angiogenic potential of vanadium complexes, as already described in literature11–13. Firstly, chicken embryos were […]
concentration of each complex dissolved in PBS 1x was placed in the centre of O-rings. Beside each complex, DMSO 0.1% (v/v) was used as a control and complex distribution in chicken embryos was always performed in a different order. The embryos were incubated for 48 h at 37 °C and images were […]
Newly formed blood vessels were later manually counted, via ImageJ software.
The ex-ovo CAM assay fulfils the Directive 2010/63/ EU of the European Parliament for protection of animal models for scientific purposes.
All data are presented as Mean ± SEM from at least two independent experiments unless otherwise specified. One-way ANOVA or Student’s t-test were used to determine statistical significance (p < 0.05) using the GraphPad Prism 8 software (GraphPad Software, San Diego, CA, USA).

[13] = Stability and solubility in RPMI culture medium, UV-vis; type: physicochemical; conditions: UV-vis at 0, 24, 48 h
[14] = read-out: IC50 HCT116-DoxR, 48 h of exposure, MTS, mean ± SEM
[15] = read-out: IC50 fibroblasts, 48 h of exposure, MTS, mean ± SEM
[16] = Homo sapiens, 48 h, read-out: IC50 HCT116-DoxR (ligands)
[17] = Homo sapiens, Fibroblast, 48 h, read-out: IC50 fibroblasts (ligands)
[18] = read-out: IC50 HCT116-DoxR (ligands), free ligands, 48 h of exposure, mean ± SEM
[19] = read-out: IC50 fibroblasts (ligands), free ligands, 48 h of exposure, mean ± SEM
[20] = complexes at IC50, cisplatin 5 μM, Dox 6 μM

O=C1[O][V](=[O])[O]C(=O)c2cccc1n2.c1ccc2c(c1)Sc1ccccc1N2c1ccnc2c1ccc1c(N3c4ccccc4Sc4ccccc43)ccnc12 [complex 7, [VO(dipic)(4,7-(phtiaz)2-phen)]]
IC50 [1]: > 50 µM | IC50 [2]: 3.1 ± 0.03 µM | IC50 [3, 14]: > 50 µM | IC50 [4, 15]: 21.7 ± 0.08 µM | log P [5]: 0.62

c1cnc2c(c1)ccc1cccnc12 [Phen, 1,10-phenanthroline]
IC50 [3, 16]: 1.6 ± 0.03 µM | IC50 [4, 17]: > 50 µM

c1ccc(-c2ncc[nH]2)nc1 [Pyim, 2-(1H-imidazol-2-yl)pyridine]
IC50 [3, 16]: > 50 µM | IC50 [4, 17]: > 50 µM

O=C1[O][V](=[O])[O]C(=O)c2cccc1n2.c1c[nH]cn1.c1c[nH]cn1 [complex 10, [VO(dipic)(im)2]]
IC50 [1]: > 50 µM | IC50 [2]: 14.7 ± 0.02 µM | IC50 [3, 14]: > 50 µM | IC50 [4, 15]: 20.1 ± 0.05 µM | log P [5]: –1.28

O=C1[O][V](=[O])[O]C(=O)c2cccc1n2.c1ccc(-c2nc3ccccc3[nH]2)nc1 [complex 2, [VO(dipic)(pybim)]]
IC50 [1]: > 50 µM | IC50 [2]: 6.7 ± 0.02 µM | IC50 [3, 14]: 31.4 ± 0.03 µM | IC50 [4, 15]: 15.7 ± 0.04 µM | log P [5]: –0.10

O=C(O)c1cccc(C(=O)O)n1 [Dipic, dipicolinate]
IC50 [3, 18]: > 50 µM | IC50 [4, 19]: > 50 µM

Clc1ccnc2c1ccc1c(Cl)ccnc12 [4,7-Cl2-phen, 4,7-dichloro-1,10-phenanthroline]
IC50 [3, 16]: 16.4 ± 0.01 µM | IC50 [4, 17]: 17.5 ± 0.07 µM

c1ccc(-c2ccnc3c2ccc2c(-c4ccccc4)ccnc23)cc1 [4,7-Ph2-phen, 4,7-diphenyl-1,10-phenanthroline]
IC50 [3, 16]: 0.3 ± 0.02 µM | IC50 [4, 17]: 4.4 ± 0.13 µM

CC(C)(C)OO [TBHP, tert-butyl hydroperoxide, reference compound]
IC50 ([3]; Homo sapiens, 48 h, read-out: IC50 HCT116-DoxR): 42 µM

c1ccc(-c2nc3ccccc3[nH]2)nc1 [Pybim, 2-(2-pyridyl)benzimidazole]
IC50 [3, 16]: 27.1 ± 0.04 µM | IC50 [4, 17]: ~50 µM

Clc1ccnc2c1ccc1c(Cl)ccnc12.O=C1[O][V](=[O])[O]C(=O)c2cccc1n2 [complex 4, [VO(dipic)(4,7-Cl2-phen)]]
IC50 [1]: 8.8 ± 0.02 µM | IC50 [2]: 2.2 ± 0.02 µM | IC50 [3, 14]: ~9 µM and 9 µM | IC50 [4, 15]: 9.2 ± 0.01 µM | log P [5]: 0.44

O=C1C(=O)c2cccnc2-c2ncccc21.O=C1[O][V](=[O])[O]C(=O)c2cccc1n2 [complex 3, [VO(dipic)(phendione)]]
IC50 [2]: 0.2 ± 0.02 µM | IC50 [3, 14]: 1.3 ± 0.07 µM | IC50 [4, 15]: 0.7 ± 0.02 µM | log P [5]: –0.16

O=C1[O][V](=[O])[O]C(=O)c2cccc1n2.c1ccc(-c2ncc[nH]2)nc1 [complex 1, [VO(dipic)(pyim)]]
IC50 [1]: > 50 µM | IC50 [2]: 15 ± 0.02 µM | IC50 [3, 14]: > 50 µM | IC50 [4, 15]: 20.2 ± 0.04 µM | log P [5]: –0.04

c1ccc2c(c1)Sc1ccccc1N2c1ccnc2c1ccc1c(N3c4ccccc4Sc4ccccc43)ccnc12 [4,7-(phtiaz)2-phen, 4,7-phenothiazine-1,10-phenanthroline]
IC50 [3, 18]: > 50 µM | IC50 [4, 19]: > 50 µM

N.N.[Cl][Pt][Cl] [cisplatin, reference compound]
IC50 [1]: 15.6 ± 5.3 µM | IC50 [2]: 1.9 ± 0.2 µM | early apoptosis (HCT116-DoxR cells [6]; [20]): 31.9 ± 4.6% | late apoptosis (HCT116-DoxR cells [6]; [20]): 10.0 ± 4.2% | necrosis (HCT116-DoxR cells [6]; [20]): 1.6 ± 0.7% | percentage of apoptosis (total) (HCT116-DoxR cells [6]; [20]): ~40% | caspase-8 activity vs 0.1% DMSO (caspase-8): higher level of caspase-8 | cell cycle arrest / cytostatic effect (HCT116-DoxR cells [7]): cytostatic effect | increase of autophagic vesicles over the control (HCT116-DoxR cells [8]): ~2.3 fold

O=C1[O][V](=[O])[O]C(=O)c2cccc1n2.c1cnc2c(c1)ccc1cccnc12 [complex 8, [VO(dipic)(phen)]]
IC50 [1]: 3.7 ± 0.01 µM | IC50 [2]: 2.1 ± 0.03 µM | IC50 (HCT116-DoxR spheroids): 11.7 ± 0.62 µM | Concentration in cells (HCT116-DoxR cells [9]): 6.705 µM | increase of percentage of apoptotic cells normalized to DMSO (HCT116-DoxR cells [6]; IC50): 1.7 fold | early apoptosis (HCT116-DoxR cells [6]; [20]): 44.8 ± 6.2% | late apoptosis (HCT116-DoxR cells [6]; [20]): 4.5 ± 2.1% | necrosis (HCT116-DoxR cells [6]; [20]): 0.9 ± 0.6% | percentage of apoptosis (total) (HCT116-DoxR cells [6]; [20]): about 50% | viable cells (HCT116-DoxR cells [6]; [20]): 49.8 ± 6.0% | caspase-8 activity vs 0.1% DMSO (caspase-8): higher level of caspase-8 | ROS production, increase over the DMSO control (HCT116-DoxR cells [10]): 2.4 fold | BSA fluorescence with increasing complex concentrations ([11]; BSA 20 μM, complexes 10-100 μM, pH 7.0, 24 h, 37 °C): high decrease in BSA fluorescence | interaction with BSA protein ([11]; UV-vis and fluorescence spectroscopy): capable of interacting | cell migration (wound remission) (fibroblasts): do not promote cell migration | anti-/pro-angiogenic potential, newly formed blood vessels, 48 h [12]: no anti-/pro-angiogenic potential | stability in RPMI culture medium [13]: no spectral changes over time | IC50 ([3]; read-out: IC50 2D, HCT116-DoxR 2D culture, 48 h): 1.3 ± 0.04 µM | IC50 [3, 14]: 1.3 ± 0.04 µM | IC50 [4, 15]: 8.6 ± 0.02 µM | increase of autophagic vesicles over the control (HCT116-DoxR cells [8]): ~2.3 fold | log P [5]: 0.40

O=C1[O][V](=[O])[O]C(=O)c2cccc1n2.c1ccc(-c2ccccn2)nc1 [complex 9, [VO(dipic)(bipy)]]
IC50 [1]: 44 ± 0.04 µM | IC50 [2]: 4.8 ± 0.02 µM | IC50 [3, 14]: 39.2 ± 0.09 µM | IC50 [4, 15]: 16.2 ± 0.04 µM | log P [5]: 0.13

O=C1C(=O)c2cccnc2-c2ncccc21 [phendione]
IC50 [3, 16]: 0.7 ± 0.01 µM | IC50 [4, 17]: 1.8 ± 0.05 µM

c1ccc(-c2ccccn2)nc1 [Bipy, 2,2′-bipyridine]
IC50 [3, 16]: > 50 µM | IC50 [4, 17]: > 50 µM

COc1ccnc2c1ccc1c(OC)ccnc12 [4,7-(CH3O)2-phen, 4,7-dimethoxy-1,10-phenanthroline]
IC50 [3, 16]: 0.3 ± 0.05 µM | IC50 [4, 17]: 10 ± 0.01 µM
